Consider 1 molecule from patent US20080261911A1, “Uses of diphenyl/diphenylamine carboxylic acids” (priority 2006, published 2008).

Test [1] concerns Sp1, Sp3 and Sp4 proteins. The test can be described thus: Western blot of Sp1, Sp3 and Sp4 protein expression in L3.6pl cells. It is filed as cell-based, human. The settings on record: 50 μM, 48 hr. A general note: In western blotting, separated proteins are transferred to a membrane and probed.
Method: Cells were treated with 50 μM non-steroidal anti-inflammatory drugs/COX-1/2 inhibitors for 48 hr and whole cell lysates were analyzed by Western blot analysis. […] Protein band intensities were standardized based on β-tubulin protein as a loading control.
Cells are washed once with phosphate buffered saline PBS and collected by scraping in 200 μL of lysis buffer [50 mM HEPES, 0.5M sodium chloride, 1.5 mM magnesium chloride, 1 mM EGTA, 10% (v/v) glycerol, 1% Triton X-100, 5 μL/ml of Protease Inhibitor Cocktail (Sigma)]. The lysates from the cells are incubated on ice for 1 hr with intermittent vortexing followed by centrifugation at 40,000 g for 10 min at 4° C. Equal amounts of protein (60 μg) from each treatment group are diluted with loading buffer, boiled and loaded onto 10 and 12.5% SDS-polyacrylamide gel. […] Samples are electrophoresed, transferred to membranes, and proteins detected by incubation with polyclonal primary antibodies Sp1, Sp3, Sp4, HDAC, VEGF (a-20), c-Met, surviving, VEGF, cleaved PARP, and β-tubulin (H-235) followed by blotting with appropriate horseradish peroxidase-conjugated secondary antibody as previously described (Abdelrahim et al, 2004). After autoradiography, band intensities are determined by a scanning laser densitometer (Sharp Electronics Corporation, Mahwah, N.J.) using ZERO-D SCANALYTICS software (Scanalytics Corporation, Billerica, Mass.).
For test [2], the system named is VEGF promoter constructs pVEGF1 and pVEGF2. The test can be described thus: VEGF promoter (pVEGF1/pVEGF2) luciferase transactivation in L3.6pl cells. It is filed as cell-based, human. As to conditions: 50 μM.
Method: Cells were transfected with pVEGF1 or pVEGF2 treated with DMSO, 50 μM ampiroxicam, tolfenamic acid, or diclofenac sodium, and luciferase activity determined. […] Panc-1 cells were transfected with pVEGF2, treated with 20, 40, 60 or 80 μM ampiroxicam or tolfenamic acid, and luciferase determined. […] Cells are cultured in 6-well plates in 2 ml of DME/F12 medium supplemented with 5% fetal bovine serum.
For test [3], the system named is Sp protein binding to GC-rich VEGF promoter oligonucleotide. The test can be described thus: Gel mobility shift of nuclear extracts from L3.6pl cells with VEGF32P. The settings on record: nuclear extracts of L3.6pl cells treated with 50 μM for 48 hr. It is filed as cell-based, human.
Method: Vascular endothelial growth factor and VEGFR1 oligonucleotides are synthesized and annealed, and 5 pmol aliquots are 5′-end-labeled using T4 kinase and [y-^32P]ATP. After the reaction sample was incubated 20 min on ice, and antibodies against Sp1, Sp3, and Sp4 proteins are added and incubated another 20 min on ice. Protein-DNA complexes are resolved by 5% polyacrylamide gel electrophoresis as previously described (Abdelrahim et al, 2004; Abdelrahim et al, 2005, Abdelrahim et al, submitted 2005).
Panc1 or L3.6pl cells were treated with DMSO, 50 μM tolfenamic acid or 50 μM ampiroxicam for 48 hr. Nuclear extracts from these cells were isolated, incubated with VEGF^32P and analyzed in gel mobility shift assays.
The radiolabeled oligonucleotide contained a GC-rich region (−66 to −47) from the VEGF promoter that binds Sp proteins.
A further test has as its system VEGF protein. The test can be described thus: VEGF protein expression in Panc-1 cells, Western blot. It is filed as cell-based. The settings on record: 50 μM, 48 hr, compared to DMSO.
The subject of a further test is VEGF mRNA. The test can be described thus: VEGF mRNA levels in Panc-1 cells, semi-quantitative RT-PCR. It is filed as cell-based.
Test [4] relates to VEGFR1 mRNA. The test can be described thus: VEGFR1 mRNA in Panc-1 cells, semi-quantitative RT-PCR. It is filed as cell-based. The settings on record: 50 μM, 24 h. Here is the method: FIGS. 17A-17D show effects of tolfenamic acid on the VEGFR1 promoter and mRNA expression. Transfection with pVEGFR1-A (FIG. 17A), pVEGFR1-B (FIG. 17B), and pVEGFR1-C (FIG. 17C). Panc-1 cells were transfected with pVEGFR1 constructs, treated with DMSO, 50 μM ampiroxicam, or 50 μM tolfenamic acid, and luciferase activity was determined as described in Materials and Methods. […] Results are shown for a single experiment and similar data was obtained in replicate experiments.

Test [5] concerns VEGFR1 mRNA. The test can be described thus: VEGFR1 mRNA in L3.6pl cells, semi-quantitative RT-PCR. As to conditions: 50 μM, 24 h. It is filed as cell-based, human.
The next test deals with L3.6pl cells. Briefly: Cell proliferation assay, L3.6pl cells. Type of test: cell-based, human. The protocol:
(§1) FIGS. 7A-7D compares effects of tolfenamic acid and ampiroxicam on pancreatic cancer cell proliferation. […] Panc1, Panc28 and L3.6pl cells are seeded in DMEM/F12 media with 5% FBS and treated the next day with either vehicle (DMSO) or with the indicated compounds' concentrations. Cells are counted at the indicated times using a Z1™ COULTER COUNTER® cell counter. Each experiment is carried out in triplicate and results expressed as means ±SD for each determination.

For another test, the system named is Panc-28 cells. The test can be described thus: Cell proliferation assay, Panc-28 cells. Type of test: cell-based. Here is the method: as §1
The subject of test [6] is SEG-1 esophageal cancer cells. Briefly: Western blot of Sp and Sp-dependent proteins in SEG-1 esophageal cancer cells. It is filed as cell-based. The settings on record: SEG-1 cells, 25-100 μM. Here is the method:
Cells are washed once with phosphate buffered saline PBS and collected by scraping in 200 μL of lysis buffer [50 mM HEPES, 0.5M sodium chloride, 1.5 mM magnesium chloride, 1 mM EGTA, 10% (v/v) glycerol, 1% Triton X-100, 5 μL/ml of Protease Inhibitor Cocktail (Sigma)]. The lysates from the cells are incubated on ice for 1 hr with intermittent vortexing followed by centrifugation at 40,000 g for 10 min at 4° C. Equal amounts of protein (60 μg) from each treatment group are diluted with loading buffer, boiled and loaded onto 10 and 12.5% SDS-polyacrylamide gel. For vascular endothelial growth factor immunoblots, 100 μg of protein are used. Samples are electrophoresed, transferred to membranes, and proteins detected by incubation with polyclonal primary antibodies Sp1, Sp3, Sp4, HDAC, VEGF (a-20), c-Met, surviving, VEGF, cleaved PARP, and β-tubulin (H-235) followed by blotting with appropriate horseradish peroxidase-conjugated secondary antibody as previously described (Abdelrahim et al, 2004). After autoradiography, band intensities are determined by a scanning laser densitometer (Sharp Electronics Corporation, Mahwah, N.J.) using ZERO-D SCANALYTICS software (Scanalytics Corporation, Billerica, Mass.).

In test [7] the test system is SEG-1 esophageal cancer cells. The test can be described thus: Cell proliferation assay, SEG-1 esophageal cancer cells. Type of test: cell-based. As to conditions: DMSO control. Also noted: dose or concentration left out as unconfirmed.
In test [8] the test system is Bic-1 esophageal cancer cells. The test can be described thus: Cell proliferation assay, BIC-1 esophageal cancer cells. Type of test: cell-based. Also on record: dose or concentration left out as unconfirmed. As to conditions: tolfenamic acid, DMSO control.

Take `Cc1c(Cl)cccc1Nc1ccccc1C(=O)O` [tolfenamic acid]: in test [1], the “decrease of Sp1, Sp3 and Sp4 proteins” value was “greater than 65%”. Further, in [2], the “luciferase activity, pVEGF1 and pVEGF2 constructs” value is “results similar to those observed in Panc-1 cells”. Also, the “Sp3 and Sp1/Sp4 retarded bands with VEGF32P” value in [3] is listed as “retarded bands were decreased”. In addition, the “decrease of vascular endothelial growth factor expression (protein)” value with VEGF protein is on record as “greater than 60%”. Besides, the “decrease of vascular endothelial growth factor mRNA levels” value in the test with VEGF mRNA (50 μM, 24 hours, compared to DMSO) was “greater than 60%”. The “VEGF mRNA stability” value in the test with VEGF mRNA (actinomycin D alone or with 50 μM tolfenamic acid, up to 4.5 hr) is listed as “decreased at similar rates”. Further, the “VEGFR1 mRNA levels” value with VEGFR1 mRNA [4] and in the test on VEGFR1 mRNA [5] was “decreased VEGFR1 mRNA levels” throughout. In addition, the “potency as inhibitor of pancreatic cell growth relative to ampiroxicam” value in the test with L3.6pl cells and in the test on Panc-28 cells was “more potent as an inhibitor of pancreatic cell growth than ampiroxicam” in each case. The cell growth result with L3.6pl cells (25-100 μM, 6 days) is “significantly (p<0.05) inhibited cell growth”; with Panc-28 cells (25-100 μM, 6 days) it was “significantly (p<0.05) inhibited cell growth”. Further, the “apoptosis as shown by PARP cleavage” value in [6] is recorded as “induced apoptosis”. Also, the “expression of Sp-dependent proteins VEGF, survivin, and c-Met” value in [6] was “decreased expression of Sp-dependent proteins vascular endothelial growth factor (VEGF), survivin, and c-Met”. Also, the “protein expression of Sp1, Sp3, and Sp4” value in [6] was “decreased protein expression of Sp1, Sp3, and Sp4”. Moreover, in [7], the “growth of SEG-1 esophageal cancer cells” value is “inhibits growth”. For the same molecule, the “growth of BIC-1 esophageal cancer cells” value in test [8] is “inhibits growth”.
